From ChEMBL document CHEMBL1147725, “Identification and biological characterization of 6-aryl-7-isopropylquinazolinones as novel TRPV1 antagonists that are effective in models of chronic pain” (J Med Chem, 2006)
The source made the active and inactive calls. The rule behind the calls is not given here.

Experiments:
[1] = biological target: Transient receptor potential cation channel subfamily V member 1 (Homo sapiens, UniProt Q8NER1); assay: Inhibition of calcium influx evoked by capsaicin in human TRPV1 expressing cells by fluorescence assay; format: functional
Transient receptor potential cation channel subfamily V member 1, sequence (Q8NER1 whole entry): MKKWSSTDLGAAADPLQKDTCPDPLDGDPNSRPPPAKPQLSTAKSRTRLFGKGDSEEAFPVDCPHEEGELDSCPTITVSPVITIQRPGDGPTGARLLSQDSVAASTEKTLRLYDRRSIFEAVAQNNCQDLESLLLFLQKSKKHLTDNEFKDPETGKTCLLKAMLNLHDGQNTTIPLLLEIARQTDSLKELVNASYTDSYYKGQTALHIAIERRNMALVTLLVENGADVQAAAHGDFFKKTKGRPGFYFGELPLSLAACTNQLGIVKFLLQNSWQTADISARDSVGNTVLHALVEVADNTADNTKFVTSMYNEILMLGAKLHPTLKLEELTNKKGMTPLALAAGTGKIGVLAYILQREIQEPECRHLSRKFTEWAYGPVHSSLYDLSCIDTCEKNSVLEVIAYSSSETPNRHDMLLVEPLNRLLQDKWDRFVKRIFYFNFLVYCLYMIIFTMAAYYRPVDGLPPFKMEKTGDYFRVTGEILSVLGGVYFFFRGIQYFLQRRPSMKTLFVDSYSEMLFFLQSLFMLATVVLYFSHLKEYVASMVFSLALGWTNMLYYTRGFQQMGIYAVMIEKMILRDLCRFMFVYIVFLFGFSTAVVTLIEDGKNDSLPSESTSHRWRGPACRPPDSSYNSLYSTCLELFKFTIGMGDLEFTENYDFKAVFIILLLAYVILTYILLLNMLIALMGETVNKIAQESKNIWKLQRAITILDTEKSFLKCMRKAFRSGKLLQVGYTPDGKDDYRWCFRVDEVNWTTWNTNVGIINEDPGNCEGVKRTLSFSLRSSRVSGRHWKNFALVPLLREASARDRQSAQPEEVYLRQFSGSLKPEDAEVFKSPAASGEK

[2] = biological target: Transient receptor potential cation channel subfamily V member 1 (Rattus norvegicus) (UniProt O35433); assay: Inhibition of calcium influx evoked by capsaicin in rat TRPV1 expressing cells by fluorescence assay; format: functional, cell-based
Transient receptor potential cation channel subfamily V member 1 (Rattus norvegicus), sequence (O35433 whole entry): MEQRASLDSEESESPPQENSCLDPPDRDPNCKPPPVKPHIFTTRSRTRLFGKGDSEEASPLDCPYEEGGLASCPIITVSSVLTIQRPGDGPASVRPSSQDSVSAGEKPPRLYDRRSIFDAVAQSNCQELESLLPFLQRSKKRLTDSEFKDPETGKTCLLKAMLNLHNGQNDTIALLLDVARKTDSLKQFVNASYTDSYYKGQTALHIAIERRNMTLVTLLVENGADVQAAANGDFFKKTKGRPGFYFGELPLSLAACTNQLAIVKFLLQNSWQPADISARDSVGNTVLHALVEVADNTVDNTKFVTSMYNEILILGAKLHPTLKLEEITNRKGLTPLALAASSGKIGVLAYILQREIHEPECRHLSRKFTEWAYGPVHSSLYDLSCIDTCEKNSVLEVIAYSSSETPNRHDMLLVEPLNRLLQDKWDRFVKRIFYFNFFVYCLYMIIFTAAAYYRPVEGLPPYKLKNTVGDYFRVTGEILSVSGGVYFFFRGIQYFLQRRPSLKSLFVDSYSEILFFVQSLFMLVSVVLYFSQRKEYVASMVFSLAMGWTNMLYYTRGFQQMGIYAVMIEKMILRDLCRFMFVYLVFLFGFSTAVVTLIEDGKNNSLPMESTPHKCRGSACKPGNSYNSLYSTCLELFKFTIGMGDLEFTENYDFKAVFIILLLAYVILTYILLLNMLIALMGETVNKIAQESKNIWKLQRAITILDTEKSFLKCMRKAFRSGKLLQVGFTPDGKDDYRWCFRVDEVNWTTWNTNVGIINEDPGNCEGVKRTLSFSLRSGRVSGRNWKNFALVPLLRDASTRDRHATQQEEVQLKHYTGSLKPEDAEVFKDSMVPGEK

IC50 [1] [nM]	Activity [1]	Activity [2]	SMILES
201			Cc1nc(O)c2cc(-c3ccc(Cl)c(OC(C)C)c3)c(C(C)C)cc2n1
42			Cc1nc(O)c2cc(-c3ccc(C)c(Cl)c3)c(C(C)C)cc2n1
> 1000			Cc1nc(O)c2cc(-c3ccc(Cl)c(OCC(=O)O)c3)c(C(C)C)cc2n1
37			CCOc1cc(-c2cc3c(=O)[nH]c(C)nc3cc2C(C)C)c(Cl)cc1Cl
144			Cc1nc(O)c2cc(-c3ccc(Cl)c(OCC4CCC4)c3)c(C(C)C)cc2n1
	inactive	inactive	CC(C)(C)c1nc2nc(S)nc(O)c2cc1-c1ccc(Cl)cc1
14			COc1cc(-c2cc3c(=O)[nH]c(C)nc3cc2C(C)C)ccc1Cl
286			CCOc1cc(-c2cc3c(=O)[nH]c(C)nc3cc2C(C)C)ccc1OC
23			Cc1nc2cc(C(C)C)c(-c3ccc(Cl)c(F)c3)cc2c(=O)[nH]1
40			CCCOc1cc(-c2cc3c(=O)[nH]c(C)nc3cc2C(C)C)ccc1Cl
133			CC(C)c1cc2nc(N)[nH]c(=O)c2cc1-c1ccc(Cl)cc1
12			CCOc1cc(-c2cc3c(=O)[nH]c(C)nc3cc2C(C)C)ccc1Cl
